The values below are quoted from earlier work in patent US8187629B2, “Non-lamellar compositions of DOPE and P80” (Camurus AB, priority 2004, dated 2012).

Each structure is given as a SMILES string.

For the series the following is noted: room temperature; greater at physiological temperature.

For `CCCCCCCC/C=C\CCCCCCCC(=O)OCC(O)CO` (stereo not shown) [GMO, glycerol monooleate], the equilibrium water solubility entry is reported as “at least 10^−7 M”.
